One compound from patent US20240410831A1, “Multi-Mode Zinc-Selective Emission-Ratiometric Fluorescent Probes for Biological Application” (Georgia Tech Research Corporation, priority 2023, published 2024) can be followed below.

Data set [1] can be described thus: Fluorometric competition titration with EGTA, Zn(II) complex stability constant. The class given is binding. The protocol:
FIG. 6A illustrates the fluorometric determination of the Zn(II) complex stability constant of probe 8 via competition titration with EGTA. (A) of FIG. 6A illustrates an exemplary Formula I, Formula II, and/or a derivative thereof (e.g., for example probe 8) (10 μM) that was equilibrated with molar equivalent of Zn(OTf)2 in chelexed PIPES buffer (pH 7.0, 10 mM PIPES, 0.1 M KCl, 25° C.) containing 100 μM 4:1 DMPC:DMPG liposomes and titrated with EGTA to a final concentration of 50 μM. The fluorescence spectra (excitation at 405 nm) were analyzed by non-linear least squares fitting. (B) FIG. 6A illustrates an exemplary change in fluorescence response at 515 nm with the corresponding fit using the equilibrium system model as defined in the table of FIG. 6B.
The binding affinity of Formula I, Formula II, and/or a derivative thereof (e.g., for example probe 8) was analyzed in PIPES buffer containing 100 μM of 4:1 DMPC:DMPG liposomes (pH 7.0, 10 mM PIPES, 0.1 M KCl, 25° C.). […] The binding affinity is over 400-fold weaker than chromis-1 acid, and approximately 10-fold lower than chromis-1 ester. The discrepancy in binding affinities is likely due to a combination of two factors. […]
A solution of Formula I, Formula II, and/or a derivative thereof (e.g., for example probe 8) was diluted from a 3.0 mM DMSO stock solution to a final concentration of 10 μM in Chelex®-treated PIPES buffer (10 mM, 0.1 M KCl, pH 7.0) containing 10 μM of Zn(OTf)2 and 100 μM of liposomes (4:1 mixture of DMPC and DMPG). […] After the addition of each aliquot of EGTA, the solution was allowed to equilibrate for 1 minute, and a fluorescence spectrum (excitation at 405 nm, spectral window 415-665 nm) was acquired. The titration was conducted in triplicate, and the data were analyzed by nonlinear least-squares fitting over the entire spectral range using the SPECFIT software package.

Data set [2] can be described thus: Fluorometric Zn(II) titration in PIPES buffer with DMPC:DMPG liposomes. It counts as physicochemical. Conditions: pH 7.0 buffer, 100 μM liposomes, excitation at 405 nm. The method, then:
To investigate the capability of Formula I, Formula II, and/or a derivative thereof (e.g., for example probe 8) as a dual-mode excitable Zn(II)-selective fluorescent indicator, fluorometric Zn(II)-titrations were performed with excitation at 405 nm. Comprehensive spectroscopic analysis of Formula I, Formula II, and/or a derivative thereof (e.g., for example probe 8) was performed in the presence of liposomes as a biological model-membranes composed of a 4:1 ratio of zwitterionic dimyristoyl […] (DMPC) and anionic dimyristoyl phosphatidylglycerol (DMPG). The probe was directly diluted from a DMSO stock solution into the pH 7.0 buffer containing 100 μM liposomes. […]
A solution of Formula I, Formula II, and/or a derivative thereof (e.g., for example probe 8) (10 μM) in analytical grade MeOH prepared in a quartz cuvette with a 1-cm pathlength was titrated with Zn(OTf)2 (from a 0.3 mM aqueous stock solution) in 1.0 μM (0.1 molar equiv.) increments. After each aliquot of Zn(II), the solution was equilibrated for 1 minute by magnetic stirring, and an absorbance (spectral window: 250-500 nm) and fluorescence spectrum (excitation at 395 nm, spectral window 405-705 nm) were acquired. […] After each aliquot of Zn(II), the solution was equilibrated for 1 minute by magnetic stirring, and a fluorescence spectrum (excitation: 405 nm, spectral window 420-700 nm) was acquired.

The nature of data set [3]: Fluorescence quantum yield measurement. The class given is physicochemical. Conditions: liposome solution, pH 7.0 PIPES. The method, then:
The quantum yields of the free Formula I, Formula II, and/or a derivative thereof (e.g., for example probe 8) was determined using quinine sulfate as a reference (Df=0.546 in 1.0 N H2SO4). The quantum yield was derived from a 5-point measurement in Chelex®-treated PIPES buffer containing 100 μM of 4:1 DMPC:DMPG liposomes (pH 7.0, 10 mM PIPES, 0.1 M KCl, 25° C.). For the free compound 1 (e.g., for example probe 8 in FIG. 4H), the solutions were supplemented with 20 μM of EDTA (from a 3.0 mM stock solution in DI H2O). The quantum yield of the probe 8-Zn(II) complex was independently determined under the same conditions in the presence of 1.1 molar equivalent of Zn(OTf)2. The quantum yield of the Zn(II) complex was confirmed with fluorescence quantum yield ratio. The fluorescence quantum yields were calculated as an average of two independent measurements.

SMILES strings stand for the structures.

In the case of `COc1ccc2c(c1)C(C)(C)c1nc(-c3cccc(CN(Cc4ncccn4)Cc4ncccn4)n3)sc1-2` [probe 8], the “binding affinity weaker than chromis-1 acid” value in data set [1] (Zn(II) affinity compared with chromis-1 acid) is “over 400 fold”. In addition, the “binding affinity lower than chromis-1 ester” value in data set [1] (Zn(II) affinity compared with chromis-1 ester) is reported as “approximately 10 fold”. For the same compound, in data set [1] (pH 7.0, ionic background 0.1 M KCl, 25° C., liposomes, read-out: apparent dissociation constant Kd for Zn(II)), the Kd was 18.5 nM. The emission maximum in data set [2] (after Zn(II) addition) turned out to be 515 nm; in data set [2] (free probe), 480 nm. For the same compound, the quantum yield stood at 78% in data set [3] (Zn(II)-probe complex) and 72% in data set [3] (free probe).
